Experimental data published in US8609836B2, “4-aryl-2-anilino-pyrimidines” (Janssen Pharmaceutica NV, priority 2008, dated 2013).

Experiments:
PLK1 T210D (h) = PLK1 T210D (h) (Homo sapiens, UniProt P53350, T210D); assay: PLK1 human kinase inhibition, SPA; format: biochemical; settings: read-out: PLK1 pIC50 (converted)
Method in brief: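 Radiometric SPA with PLK1 T210D (0.125 ng/ml) in 50 mM Hepes pH 8.0, 2 mM MnCl2, 1 mM DTT, 2 μM biotinylated peptide, 0.1 μM ATP plus 2 nM [γ-33P]ATP. 40 min at room temperature, EDTA stop. Phosphorylated substrate captured on streptavidin PVT beads, scintillation imaged.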

GSK3β (h) = GSK3β (h) (Homo sapiens, UniProt P49841); assay: GSK-3β human kinase inhibition, SPA; format: biochemical; settings: read-out: GSK3b pIC50 (converted)
Chain of GSK3β (h) (P49841 whole entry): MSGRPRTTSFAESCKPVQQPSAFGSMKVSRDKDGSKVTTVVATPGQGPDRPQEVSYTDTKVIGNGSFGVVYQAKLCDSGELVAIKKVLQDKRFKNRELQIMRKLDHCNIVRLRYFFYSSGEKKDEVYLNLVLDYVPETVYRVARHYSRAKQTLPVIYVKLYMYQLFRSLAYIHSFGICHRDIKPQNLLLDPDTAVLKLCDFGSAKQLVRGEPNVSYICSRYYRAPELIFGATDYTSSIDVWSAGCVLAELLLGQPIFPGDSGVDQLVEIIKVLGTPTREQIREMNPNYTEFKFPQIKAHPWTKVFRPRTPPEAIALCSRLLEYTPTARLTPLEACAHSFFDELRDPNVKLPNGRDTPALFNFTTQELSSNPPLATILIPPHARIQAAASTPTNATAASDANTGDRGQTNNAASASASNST
Method in brief: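 Scintillation proximity assay: GSK3β (1 μg/ml) with 1 μM biotinylated peptide, 1 μM ATP plus [γ-33P]ATP in Tris pH 7.4, MgCl2, DTT. 60 min at room temperature, stopped with EDTA and streptavidin PVT beads; phosphorylation read by Leadseeker imaging.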

H1299 = assay: Cellular proliferation assay (Alamar blue), H1299; format: cell-based; settings: Homo sapiens, NCI-H1299; 10% FCS; 72 hours with compound; Alamar blue 4 h
Method in brief: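 This proliferation assay on NCI-H1299 cells used an initial 24-hour compound-free incubation after seeding, followed by 72 hours of compound treatment with 10% FCS serum at 37° C. and 5% (v/v) CO2. Viable cells were quantified by a 4 h Alamar blue incubation and fluorescent plate reading at 544 nm/590 nm, and effects were expressed relative to control cells.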

HCT-116 = assay: Cellular proliferation assay (Alamar blue), HCT-116; format: cell-based; settings: Homo sapiens, 10% FCS, 72 hours with compound, Alamar blue 4 h
Method in brief: (§1)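 Cells were seeded in medium with 10% FCS at 37° C, 5% CO2, left 24 h without compound, then exposed to compounds for 72 h. Viability was read with Alamar blue (resazurin 9 μg/ml, K-ferrocyanide and K-ferricyanide 90 μM each), 6 h for U87-MG, 4 h for HCT-116, 24 h for A2780 and MDA-MB-231.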

CDK4/CyclinD1 (h) = CDK4/CyclinD1 (h) (Homo sapiens, UniProt P11802); assay: CDK4/CyclinD1 human kinase inhibition, SPA with GST-pRb substrate; format: biochemical; settings: read-out: CDK4 pIC50 (converted)
Chain of CDK4/CyclinD1 (h) (P11802 whole entry): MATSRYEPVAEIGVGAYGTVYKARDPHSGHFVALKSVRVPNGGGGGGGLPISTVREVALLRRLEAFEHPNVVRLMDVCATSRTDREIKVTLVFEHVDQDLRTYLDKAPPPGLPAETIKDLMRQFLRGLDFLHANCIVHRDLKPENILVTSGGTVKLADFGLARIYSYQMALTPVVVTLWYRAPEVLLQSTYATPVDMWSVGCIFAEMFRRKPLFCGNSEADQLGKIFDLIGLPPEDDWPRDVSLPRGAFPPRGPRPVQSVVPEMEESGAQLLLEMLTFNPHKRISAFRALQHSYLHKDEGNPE
Chain of CDK4/CyclinD1 (h) (P24385 whole entry partner): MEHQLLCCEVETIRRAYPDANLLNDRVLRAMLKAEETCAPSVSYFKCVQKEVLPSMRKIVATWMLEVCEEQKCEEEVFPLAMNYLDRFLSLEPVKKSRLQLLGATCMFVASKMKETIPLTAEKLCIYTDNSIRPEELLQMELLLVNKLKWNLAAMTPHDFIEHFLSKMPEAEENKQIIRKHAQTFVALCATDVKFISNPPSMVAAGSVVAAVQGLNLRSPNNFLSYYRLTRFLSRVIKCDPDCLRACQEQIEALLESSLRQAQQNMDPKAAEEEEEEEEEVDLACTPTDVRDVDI
Method in brief: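 Human CDK4/CyclinD1 (2.5 μg/ml) was incubated with 40 μg/ml GST-pRb and 2 nM [γ-33P]ATP in 50 mM Hepes pH 7.5, 8 mM NaF, 20 mM MgCl2, 1 mM DTT for 60 min at room temperature. EDTA stop with glutathione SPA beads; phosphorylation read by scintillation counting.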

MDA-MB-231 = assay: Cellular proliferation assay (Alamar blue), MDA-MB-231; format: cell-based; settings: Homo sapiens, 10% FCS, 72 hours with compound, Alamar blue 24 h, read-out: MDA/MB231 (cellular proliferation assay, Table 4) (converted)
Method in brief: as §1

PLK4 (h) = PLK4 (h) (Homo sapiens, UniProt O00444); assay: PLK-4 human kinase inhibition, scintillation proximity assay (SPA); format: biochemical; settings: read-out: PLK4 pIC50 (converted)
Chain of PLK4 (h) (O00444 whole entry): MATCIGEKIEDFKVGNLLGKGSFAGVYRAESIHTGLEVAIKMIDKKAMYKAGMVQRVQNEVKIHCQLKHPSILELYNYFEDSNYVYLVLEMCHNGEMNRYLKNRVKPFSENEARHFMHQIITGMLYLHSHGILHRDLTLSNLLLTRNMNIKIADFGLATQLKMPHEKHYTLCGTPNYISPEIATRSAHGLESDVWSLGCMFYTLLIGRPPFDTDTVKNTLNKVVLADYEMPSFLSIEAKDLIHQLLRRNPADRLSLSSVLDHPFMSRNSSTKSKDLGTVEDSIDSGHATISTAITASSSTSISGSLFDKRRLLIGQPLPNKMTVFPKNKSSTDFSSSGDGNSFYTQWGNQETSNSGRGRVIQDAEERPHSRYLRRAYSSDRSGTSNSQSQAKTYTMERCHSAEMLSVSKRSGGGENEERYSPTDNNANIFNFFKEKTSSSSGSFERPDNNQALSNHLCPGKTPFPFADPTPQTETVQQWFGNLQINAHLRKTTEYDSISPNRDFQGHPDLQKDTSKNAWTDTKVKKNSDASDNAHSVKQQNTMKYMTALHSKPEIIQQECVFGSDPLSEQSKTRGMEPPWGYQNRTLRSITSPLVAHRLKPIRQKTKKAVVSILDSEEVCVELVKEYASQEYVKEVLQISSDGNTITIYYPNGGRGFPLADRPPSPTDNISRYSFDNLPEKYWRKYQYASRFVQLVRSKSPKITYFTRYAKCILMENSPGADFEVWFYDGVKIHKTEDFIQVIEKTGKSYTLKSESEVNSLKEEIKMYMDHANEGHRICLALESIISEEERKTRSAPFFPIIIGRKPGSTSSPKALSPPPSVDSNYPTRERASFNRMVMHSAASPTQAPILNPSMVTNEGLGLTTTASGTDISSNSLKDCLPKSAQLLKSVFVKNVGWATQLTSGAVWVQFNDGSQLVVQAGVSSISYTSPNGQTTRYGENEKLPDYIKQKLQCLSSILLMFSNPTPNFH

PLK2 (h) = PLK2 (h) (Homo sapiens, UniProt Q9NYY3); assay: PLK2 human kinase inhibition, SPA; format: biochemical; settings: read-out: PLK2 pIC50 (converted)
Chain of PLK2 (h) (Q9NYY3 whole entry): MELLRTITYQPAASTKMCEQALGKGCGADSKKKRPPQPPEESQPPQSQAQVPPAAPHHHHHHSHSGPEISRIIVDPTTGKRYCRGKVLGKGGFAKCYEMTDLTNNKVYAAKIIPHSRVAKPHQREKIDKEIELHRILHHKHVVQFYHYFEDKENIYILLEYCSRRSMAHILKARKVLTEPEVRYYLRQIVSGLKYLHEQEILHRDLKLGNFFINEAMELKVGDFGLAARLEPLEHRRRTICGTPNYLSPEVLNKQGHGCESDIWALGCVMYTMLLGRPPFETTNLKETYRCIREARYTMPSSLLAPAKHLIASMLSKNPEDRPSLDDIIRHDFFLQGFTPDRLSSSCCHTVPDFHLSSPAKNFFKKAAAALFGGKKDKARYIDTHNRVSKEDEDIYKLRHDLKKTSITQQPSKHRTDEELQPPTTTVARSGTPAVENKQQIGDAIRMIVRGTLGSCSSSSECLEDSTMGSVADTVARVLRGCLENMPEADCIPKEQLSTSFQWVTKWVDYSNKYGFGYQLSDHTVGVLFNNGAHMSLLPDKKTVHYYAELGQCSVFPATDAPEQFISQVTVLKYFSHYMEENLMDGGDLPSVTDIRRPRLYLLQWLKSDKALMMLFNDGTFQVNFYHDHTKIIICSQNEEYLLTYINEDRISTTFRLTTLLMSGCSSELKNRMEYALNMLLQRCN
Method in brief: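 SPA read on Leadseeker: PLK2 (30 μg/ml) with 2 μM biotinylated peptide, 0.1 μM ATP plus 2 nM [γ-33P]ATP in 50 mM Hepes pH 8.0, 2 mM MnCl2, 1 mM DTT. Reaction ran 20 min at room temperature, then EDTA stop and streptavidin PVT beads.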

AuroraB (h) = AuroraB (h) (Homo sapiens, UniProt Q96GD4); assay: Aurora-B human kinase inhibition, SPA; format: biochemical; settings: read-out: AuroraB pIC50 (converted)
Chain of AuroraB (h) (Q96GD4 whole entry): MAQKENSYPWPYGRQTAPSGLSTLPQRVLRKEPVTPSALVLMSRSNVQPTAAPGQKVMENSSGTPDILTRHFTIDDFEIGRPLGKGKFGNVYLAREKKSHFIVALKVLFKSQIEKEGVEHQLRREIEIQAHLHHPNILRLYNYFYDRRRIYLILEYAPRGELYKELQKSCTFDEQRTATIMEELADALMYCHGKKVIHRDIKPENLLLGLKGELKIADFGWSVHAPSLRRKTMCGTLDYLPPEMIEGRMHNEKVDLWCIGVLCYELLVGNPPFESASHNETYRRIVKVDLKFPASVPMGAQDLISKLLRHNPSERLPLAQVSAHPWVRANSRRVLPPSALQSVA
Method in brief: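 SPA with biotinylated peptide (3 μM) in 60 mM Hepes pH 7.5, Mg/Mn 3 mM each, 0.5 μM ATP plus [γ-33P]ATP, AuroraB at 0.5 μg/ml. The reaction runs 60 min at room temperature and is stopped with EDTA and streptavidin PVT beads. 33P-substrate is read by scintillation imaging.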

Chain of PLK1 T210D (h) (P53350 whole entry T210D): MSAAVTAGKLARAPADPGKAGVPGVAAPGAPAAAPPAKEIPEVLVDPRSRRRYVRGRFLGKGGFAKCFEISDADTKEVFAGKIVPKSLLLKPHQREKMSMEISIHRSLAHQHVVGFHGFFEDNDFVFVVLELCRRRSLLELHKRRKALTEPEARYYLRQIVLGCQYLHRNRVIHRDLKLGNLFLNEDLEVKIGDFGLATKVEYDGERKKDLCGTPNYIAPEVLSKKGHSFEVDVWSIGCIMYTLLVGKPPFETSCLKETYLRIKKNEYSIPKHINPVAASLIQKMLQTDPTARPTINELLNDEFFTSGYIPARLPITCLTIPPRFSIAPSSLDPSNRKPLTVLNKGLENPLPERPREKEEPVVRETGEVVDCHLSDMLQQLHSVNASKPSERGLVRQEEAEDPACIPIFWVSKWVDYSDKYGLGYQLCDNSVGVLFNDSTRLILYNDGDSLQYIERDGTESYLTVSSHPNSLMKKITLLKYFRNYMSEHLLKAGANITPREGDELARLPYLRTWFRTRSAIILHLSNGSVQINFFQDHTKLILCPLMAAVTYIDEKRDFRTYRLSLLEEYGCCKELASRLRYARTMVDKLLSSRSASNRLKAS

IC50 (PLK1 T210D (h)): > 10 µM
IC50 (GSK3β (h)): > 10 µM
IC50 (H1299): > 10 µM
IC50 (HCT-116): > 10 µM
IC50 (CDK4/CyclinD1 (h)): > 10 µM
IC50 (MDA-MB-231): > 10 µM
IC50 (PLK4 (h)): > 10 µM
IC50 (PLK2 (h)): > 10 µM
IC50 (AuroraB (h)): > 10 µM
SMILES: COc1ccc2cc1CN(C)CCCNC(=O)[C@@H]1CCCN1Cc1cccc(c1)Nc1nccc-2n1 [Compound 180]
